Measured values reported in ChEMBL document CHEMBL1201862, “PubChem BioAssay data set” (2004).
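Dose response: 5 concentrations. Exposure: 48 h. Format: 96-well plates. Endpoint: linear interpolation; highest concentration if not reached. Abbreviation: GI50, concentration required for 50% inhibition of growth.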 Active and inactive are the calls of the source. No stated cut-off is given here; in the data, active = GI50 up to about 1.1 µM and inactive = higher.

What was measured:
Assay in all cases: NCI-60 cell line screen, 48 h
BT-549 = test system: BT-549
DU-145 = test system: DU-145
HCT-15 = test system: HCT-15
KM12 = test system: KM12
MOLT-4 = test system: MOLT-4
NCI-H226 = test system: NCI-H226
NCI/ADR-RES = test system: NCI/ADR-RES
OVCAR-3 = test system: OVCAR-3
PC-3 = test system: PC-3
RPMI-8226 = test system: RPMI-8226
RXF 393 = test system: RXF 393
SF-268 = test system: SF-268
SF-295 = test system: SF-295
SK-MEL-28 = test system: SK-MEL-28
SK-MEL-2 = test system: SK-MEL-2
SNB-75 = test system: SNB-75
SNB-78 = test system: SNB-78
SR = test system: SR
T47D = test system: T47D
UACC-257 = test system: UACC-257

Compound | GI50 (BT-549) | GI50 (DU-145) | GI50 (HCT-15) | GI50 (KM12) | GI50 (MOLT-4) | GI50 (NCI-H226) | GI50 (NCI/ADR-RES) | GI50 (OVCAR-3) | GI50 (PC-3) | GI50 (RPMI-8226) | GI50 (RXF 393) | GI50 (SF-268) | GI50 (SF-295) | GI50 (SK-MEL-28) | GI50 (SK-MEL-2) | GI50 (SNB-75) | GI50 (SNB-78) | GI50 (SR) | GI50 (T47D) | GI50 (UACC-257)
CCN(CC)c1ccc(/C=C2/C[N+](C)(C)C/C(=C/c3ccc(N(CC)CC)cc3)C2=O)cc1 | 1.61 µM (inactive) | 6.05 µM (inactive) | > 100 µM | 1.23 µM (inactive) | 1.51 µM (inactive) | 6.21 µM (inactive) | > 100 µM (inactive) | 2.12 µM (inactive) | 3.05 µM (inactive) | 0.653 µM (active) | 2.77 µM (inactive) | 2.58 µM (inactive) | 11.9 µM (inactive) | 1.82 µM (inactive) | 1.87 µM (inactive) | 1.62 µM (inactive) | 2.82 µM (inactive) | 0.968 µM (active) | 2.4 µM (inactive) | 2.09 µM (inactive)
COC(=O)/C(=C/c1ccc(OC)cc1)C(C(=O)O)=C(C)C | – | – | > 100 µM | > 100 µM (inactive) | > 100 µM (inactive) | > 100 µM (inactive) | – | > 100 µM (inactive) | – | > 100 µM (inactive) | > 100 µM (inactive) | > 100 µM (inactive) | > 100 µM (inactive) | > 100 µM (inactive) | > 100 µM (inactive) | – | > 100 µM (inactive) | > 100 µM (inactive) | – | > 100 µM (inactive)
C=CC(=O)C#CC#CC/C=C\CCCCCCC | > 20.6 µM (inactive) | > 20.6 µM (inactive) | > 20.6 µM | > 20.6 µM (inactive) | 4.53 µM (inactive) | > 20.6 µM (inactive) | > 20.6 µM (inactive) | > 20.6 µM (inactive) | – | 5.6 µM (inactive) | > 11.3 µM (inactive) | > 20.6 µM (inactive) | > 20.6 µM (inactive) | > 20.6 µM (inactive) | > 20.6 µM (inactive) | > 20.6 µM (inactive) | 10.3 µM (inactive) | 5.65 µM (inactive) | > 20.6 µM (inactive) | > 20.6 µM (inactive)
CN(C)CCNc1ccc2nnn3c4ccccc4c(=O)c1c23 | 13.2 µM (inactive) | 3.91 µM (inactive) | 3.25 µM | 3.85 µM (inactive) | 1.27 µM (inactive) | 1.74 µM (inactive) | 2.4 µM (inactive) | 3.36 µM (inactive) | 2.41 µM (inactive) | 2.92 µM (inactive) | 5.51 µM (inactive) | 4.22 µM (inactive) | 3.57 µM (inactive) | 4.99 µM (inactive) | 3.7 µM (inactive) | 2.55 µM (inactive) | 6.34 µM (inactive) | 2.34 µM (inactive) | 6 µM (inactive) | 3.46 µM (inactive)
NC(C(=O)O)c1ccc(C(=O)O)cc1 (centres undefined) | – | – | > 100 µM | > 100 µM (inactive) | > 100 µM (inactive) | > 100 µM (inactive) | – | > 100 µM (inactive) | – | > 100 µM (inactive) | > 100 µM (inactive) | > 100 µM (inactive) | > 100 µM (inactive) | > 100 µM (inactive) | > 100 µM (inactive) | > 100 µM (inactive) | > 100 µM (inactive) | > 100 µM (inactive) | – | > 100 µM (inactive)
CC[C@]12C=CCN3CCC4(c5cc([C@@]6(C(=O)OC)CC7CN(CCc8c6[nH]c6ccccc86)CC6CCCCC67)c(OC)cc5N(C)C4[C@](O)(C(=O)OC)C1OC(C)=O)[C@@H]32 (some centres undefined) | – | < 0.01 µM (active) | 0.111 µM | < 0.01 µM (active) | < 0.01 µM (active) | < 0.01 µM (active) | 0.186 µM (active) | < 0.01 µM (active) | < 0.01 µM (active) | < 0.01 µM (active) | < 0.01 µM (active) | < 0.01 µM (active) | < 0.01 µM (active) | – | < 0.01 µM (active) | < 0.01 µM (active) | < 0.01 µM (active) | – | – | < 0.01 µM (active)
N#C/C(=C\c1ccc(O)c(O)c1)C(=O)NC1CCC(CC2CCC(NC(=O)/C(C#N)=C/c3ccc(O)c(O)c3)CC2)CC1 (centres undefined) | – | – | 0.461 µM | 1.47 µM (inactive) | 0.743 µM (active) | 4.38 µM (inactive) | – | 1.37 µM (inactive) | – | 0.693 µM (active) | 2.29 µM (inactive) | 1.93 µM (inactive) | 1.3 µM (inactive) | 3.22 µM (inactive) | 2 µM (inactive) | 0.263 µM (active) | 1.59 µM (inactive) | 0.424 µM (active) | – | 2.84 µM (inactive)
O=Cc1ccc(-c2cccs2)s1 | 51.3 µM (inactive) | > 100 µM (inactive) | > 100 µM | > 100 µM (inactive) | > 95.1 µM (inactive) | 1.94 µM (inactive) | 42.2 µM (inactive) | 12.4 µM (inactive) | > 100 µM (inactive) | 57.5 µM (inactive) | 18.4 µM (inactive) | > 96.8 µM (inactive) | > 100 µM (inactive) | > 100 µM (inactive) | > 100 µM (inactive) | 76 µM (inactive) | > 100 µM (inactive) | 77.4 µM (inactive) | 46.9 µM (inactive) | 6.62 µM (inactive)
O=C1C(=O)N(c2ccc(Cl)cc2)C(=O)/C(=N/c2cccc3c(=O)[nH][nH]c(=O)c23)C1c1nc2ccccc2o1 (centres undefined) | – | – | > 100 µM | > 100 µM (inactive) | > 100 µM (inactive) | > 100 µM (inactive) | – | > 100 µM (inactive) | – | > 100 µM (inactive) | – | > 100 µM (inactive) | > 100 µM (inactive) | > 100 µM (inactive) | > 100 µM (inactive) | > 100 µM (inactive) | > 100 µM (inactive) | > 100 µM (inactive) | – | > 100 µM (inactive)
CC1OC(OCC2OC(Oc3c(-c4ccc(O)cc4)oc4cc(O)cc(O)c4c3=O)C(OC3OCC(O)(CO)C3O)C(O)C2O)C(O)C(O)C1O (centres undefined) | – | – | 22.1 µM | > 100 µM (inactive) | > 100 µM (inactive) | > 100 µM (inactive) | – | > 100 µM (inactive) | – | > 100 µM (inactive) | – | > 100 µM (inactive) | > 100 µM (inactive) | > 100 µM (inactive) | > 100 µM (inactive) | > 100 µM (inactive) | > 100 µM (inactive) | > 100 µM (inactive) | – | > 100 µM (inactive)
CCOC(=O)C1S/C(=N\c2ccccc2)N=C1C (centres undefined) | – | – | 55.5 µM | > 100 µM (inactive) | 38.2 µM (inactive) | 74 µM (inactive) | – | 97.1 µM (inactive) | – | 51.2 µM (inactive) | > 100 µM (inactive) | 60.1 µM (inactive) | > 100 µM (inactive) | > 100 µM (inactive) | > 100 µM (inactive) | 26.9 µM (inactive) | 83 µM (inactive) | 45.3 µM (inactive) | – | > 100 µM (inactive)
CCCOP1(=O)C=C(O)C(Cl)=C(C)C1 (centres undefined) | – | – | > 100 µM | 41.2 µM (inactive) | > 100 µM (inactive) | > 100 µM (inactive) | – | > 100 µM (inactive) | – | – | > 100 µM (inactive) | > 100 µM (inactive) | > 100 µM (inactive) | > 100 µM (inactive) | 40.6 µM (inactive) | > 100 µM (inactive) | > 100 µM (inactive) | > 100 µM (inactive) | – | > 100 µM (inactive)
CCOC(=O)CC1COc2ccc3c(c21)OCO3 (centres undefined) | – | – | > 100 µM | > 100 µM (inactive) | > 100 µM (inactive) | > 100 µM (inactive) | – | > 100 µM (inactive) | – | > 100 µM (inactive) | – | – | > 100 µM (inactive) | > 100 µM (inactive) | > 100 µM (inactive) | > 100 µM (inactive) | > 100 µM (inactive) | > 100 µM (inactive) | – | > 100 µM (inactive)
COC1CC(OS(=O)(=O)c2ccc([N+](=O)[O-])cc2)C(OC(=O)c2ccccc2)C(C)O1 (centres undefined) | – | – | > 100 µM | > 100 µM (inactive) | > 100 µM (inactive) | – | – | > 100 µM (inactive) | – | > 100 µM (inactive) | 39.1 µM (inactive) | 82.2 µM (inactive) | > 100 µM (inactive) | > 100 µM (inactive) | – | – | > 100 µM (inactive) | > 100 µM (inactive) | – | > 100 µM (inactive)
COc1ccc(C2NC3=C(CCCC3)N2)cc1 | – | – | 44.8 µM | 54.3 µM (inactive) | 59.3 µM (inactive) | > 100 µM (inactive) | – | 71 µM (inactive) | – | > 100 µM (inactive) | – | > 100 µM (inactive) | 78 µM (inactive) | > 100 µM (inactive) | 43.8 µM (inactive) | 58.7 µM (inactive) | > 100 µM (inactive) | 44.8 µM (inactive) | – | > 100 µM (inactive)
COC(=O)C(CC(=O)Nc1ccc(Cl)c(Cl)c1)C(=O)C(=O)NC1C2CC3CC(C2)CC1C3 (centres undefined) | – | – | > 100 µM | > 100 µM (inactive) | > 100 µM (inactive) | > 100 µM (inactive) | – | > 100 µM (inactive) | – | > 100 µM (inactive) | > 100 µM (inactive) | > 100 µM (inactive) | > 100 µM (inactive) | > 100 µM (inactive) | > 100 µM (inactive) | – | > 100 µM (inactive) | > 100 µM (inactive) | – | > 100 µM (inactive)
Cc1c(/C=N/N=C/c2[nH]c(C(=O)OC(C)(C)C)c(C)c2C)[nH]c(C(=O)OC(C)(C)C)c1C | – | – | > 100 µM | > 100 µM (inactive) | > 100 µM (inactive) | > 100 µM (inactive) | – | > 100 µM (inactive) | – | 90.6 µM (inactive) | > 100 µM (inactive) | > 100 µM (inactive) | > 100 µM (inactive) | – | > 100 µM (inactive) | 33 µM (inactive) | > 100 µM (inactive) | > 100 µM (inactive) | – | > 100 µM (inactive)
C/C=C/C1=C(Cl)C(=O)[C@@H](Cl)[C@@]1(O)C(=O)OC [(+)-CRYPTOSPORIPSIN] | – | – | 1.73 µM | 7.13 µM (inactive) | 3.66 µM (inactive) | 10.2 µM (inactive) | 2.15 µM (inactive) | 2.45 µM (inactive) | – | 2.28 µM (inactive) | 2.13 µM (inactive) | 10.6 µM (inactive) | 11.2 µM (inactive) | 7.66 µM (inactive) | 2.72 µM (inactive) | 7.38 µM (inactive) | 5.18 µM (inactive) | 1.84 µM (inactive) | – | 1.6 µM (inactive)
